Reference: PubChem BioAssay (NCI)
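Grown in 96-well plates, cells were treated for 48 hours with each compound at five concentrations. Insufficient inhibition: endpoint recorded as highest concentration tested. The concentration for 50% growth inhibition is given as GI50. TGI denotes the concentration required for complete inhibition of growth.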

Legend:
Test in all cases: NCI tumour cell line growth inhibition, 48 h; in the data active = GI50 below about 0.43 µM; inactive = the rest
K-562 leukemia = test system: K-562 leukemia
786-0 renal = test system: 786-0 renal
OVCAR-5 ovarian = test system: OVCAR-5 ovarian
SK-MEL-28 melanoma = test system: SK-MEL-28 melanoma
HCT-116 colon = test system: HCT-116 colon
TK-10 renal = test system: TK-10 renal
NCI-H522 lung = test system: NCI-H522 lung
MDA-MB-231 breast = test system: MDA-MB-231 breast
A498 renal = test system: A498 renal
CCRF-CEM leukemia = test system: CCRF-CEM leukemia
KM12 colon = test system: KM12 colon
IGROV1 ovarian = test system: IGROV1 ovarian
NCI/ADR-RES ovarian = test system: NCI/ADR-RES ovarian
HCC-2998 colon = test system: HCC-2998 colon
NCI-H23 lung = test system: NCI-H23 lung
COLO 205 colon = test system: COLO 205 colon
SN12C renal = test system: SN12C renal
NCI-H226 lung = test system: NCI-H226 lung
LOX IMVI melanoma = test system: LOX IMVI melanoma
UACC-257 melanoma = test system: UACC-257 melanoma
SF-295 CNS = test system: SF-295 CNS
NCI-H460 lung = test system: NCI-H460 lung
SK-OV-3 ovarian = test system: SK-OV-3 ovarian
HCT-15 colon = test system: HCT-15 colon
SR leukemia = test system: SR leukemia
HT29 colon = test system: HT29 colon
SK-MEL-2 melanoma = test system: SK-MEL-2 melanoma
T-47D breast = test system: T-47D breast
BT-549 breast = test system: BT-549 breast
SF-539 CNS = test system: SF-539 CNS
DU-145 prostate = test system: DU-145 prostate
OVCAR-8 ovarian = test system: OVCAR-8 ovarian
OVCAR-4 ovarian = test system: OVCAR-4 ovarian
SK-MEL-5 melanoma = test system: SK-MEL-5 melanoma
SNB-75 CNS = test system: SNB-75 CNS
HOP-92 NSCLC = test system: HOP-92 NSCLC
UACC-62 melanoma = test system: UACC-62 melanoma
U251 CNS = test system: U251 CNS
HOP-62 NSCLC = test system: HOP-62 NSCLC
PC-3 prostate = test system: PC-3 prostate
MCF7 breast = test system: MCF7 breast
SW-620 colon = test system: SW-620 colon
A549 NSCLC = test system: A549 NSCLC
CAKI-1 renal = test system: CAKI-1 renal
HL-60(TB) leukemia = test system: HL-60(TB) leukemia
HS 578T breast = test system: HS 578T breast
SNB-19 CNS = test system: SNB-19 CNS
MALME-3M melanoma = test system: MALME-3M melanoma
SF-268 CNS = test system: SF-268 CNS
EKVX NSCLC = test system: EKVX NSCLC
MOLT-4 leukemia = test system: MOLT-4 leukemia
RXF 393 renal = test system: RXF 393 renal
UO-31 renal = test system: UO-31 renal
RPMI-8226 leukemia = test system: RPMI-8226 leukemia
ACHN renal = test system: ACHN renal
OVCAR-3 ovarian = test system: OVCAR-3 ovarian

C/C(=C\c1ccn(-c2ccc(N)c(F)c2)n1)[C@@H]1C[C@@H]2O[C@]2(C)CCC[C@H](C)[C@H](O)[C@@H](C)C(=O)C(C)(C)[C@@H](O)CC(=O)O1
109 nM: TGI (RXF 393 renal)
110 nM: TGI (SF-539 CNS)
267 nM: TGI (A498 renal)
74.7 nM: TGI (OVCAR-3 ovarian)
323 nM: TGI (HL-60(TB) leukemia)
> 25400 nM: TGI (RPMI-8226 leukemia)
active: GI50 (K-562 leukemia) 9.12 nM | GI50 (786-0 renal) 25.3 nM | GI50 (OVCAR-5 ovarian) 47.2 nM | GI50 (HCT-116 colon) 7.96 nM | GI50 (TK-10 renal) 64 nM | GI50 (NCI-H522 lung) 9.73 nM | GI50 (MDA-MB-231 breast) 69.5 nM | GI50 (A498 renal) < 5 nM | GI50 (CCRF-CEM leukemia) 11.4 nM | GI50 (KM12 colon) 8.57 nM | GI50 (IGROV1 ovarian) 59.9 nM | GI50 (NCI/ADR-RES ovarian) 94.3 nM | GI50 (HCC-2998 colon) 28.7 nM | GI50 (NCI-H23 lung) 13.8 nM | GI50 (COLO 205 colon) 8.45 nM | GI50 (SN12C renal) 38.9 nM | GI50 (LOX IMVI melanoma) 12.1 nM | GI50 (UACC-257 melanoma) 45.8 nM | GI50 (SF-295 CNS) 20.5 nM | GI50 (NCI-H460 lung) 9.38 nM | GI50 (SK-OV-3 ovarian) 26.2 nM | GI50 (HCT-15 colon) 9.13 nM | GI50 (SR leukemia) 9.15 nM | GI50 (HT29 colon) 7.56 nM | GI50 (SK-MEL-2 melanoma) 32.1 nM | GI50 (T-47D breast) 24.9 nM | GI50 (BT-549 breast) 41 nM | GI50 (SF-539 CNS) 12 nM | GI50 (DU-145 prostate) 15.5 nM | GI50 (OVCAR-8 ovarian) 23.9 nM | GI50 (OVCAR-4 ovarian) 96.4 nM | GI50 (SK-MEL-5 melanoma) 8.82 nM | GI50 (SNB-75 CNS) < 5 nM | GI50 (HOP-92 NSCLC) 11.9 nM | GI50 (UACC-62 melanoma) 51.7 nM | GI50 (U251 CNS) < 5 nM | GI50 (HOP-62 NSCLC) 24.5 nM | GI50 (PC-3 prostate) 13.9 nM | GI50 (MCF7 breast) 6.01 nM | GI50 (SW-620 colon) 10.3 nM | GI50 (A549 NSCLC) 11.8 nM | GI50 (CAKI-1 renal) 80.2 nM | GI50 (HL-60(TB) leukemia) 8.73 nM | GI50 (HS 578T breast) 10.8 nM | GI50 (SNB-19 CNS) 48 nM | GI50 (MALME-3M melanoma) 21.7 nM | GI50 (SF-268 CNS) 41.8 nM | GI50 (EKVX NSCLC) 171 nM | GI50 (MOLT-4 leukemia) 10.6 nM | GI50 (RXF 393 renal) 11.9 nM | GI50 (UO-31 renal) 98.2 nM | GI50 (RPMI-8226 leukemia) 9.55 nM | GI50 (ACHN renal) 234 nM | GI50 (OVCAR-3 ovarian) 8.15 nM
> 15900 nM: TGI (HT29 colon)
> 50000 nM: TGI (K-562 leukemia) | TGI (786-0 renal) | TGI (OVCAR-5 ovarian) | TGI (SK-MEL-28 melanoma) | TGI (HCT-116 colon) | TGI (TK-10 renal) | TGI (MDA-MB-231 breast) | TGI (CCRF-CEM leukemia) | TGI (KM12 colon) | TGI (IGROV1 ovarian) | TGI (NCI/ADR-RES ovarian) | TGI (HCC-2998 colon) | TGI (NCI-H23 lung) | TGI (SN12C renal) | TGI (NCI-H226 lung) | TGI (LOX IMVI melanoma) | TGI (UACC-257 melanoma) | TGI (SF-295 CNS) | TGI (NCI-H460 lung) | TGI (SK-OV-3 ovarian) | TGI (HCT-15 colon) | TGI (SR leukemia) | TGI (SK-MEL-2 melanoma) | TGI (T-47D breast) | TGI (OVCAR-8 ovarian) | TGI (OVCAR-4 ovarian) | TGI (UACC-62 melanoma) | TGI (U251 CNS) | TGI (HOP-62 NSCLC) | TGI (PC-3 prostate) | TGI (MCF7 breast) | TGI (SW-620 colon) | TGI (A549 NSCLC) | TGI (CAKI-1 renal) | TGI (SNB-19 CNS) | TGI (MALME-3M melanoma) | TGI (SF-268 CNS) | TGI (EKVX NSCLC) | TGI (MOLT-4 leukemia) | TGI (UO-31 renal) | TGI (ACHN renal)
121 nM: TGI (DU-145 prostate)
> 44400 nM: TGI (HOP-92 NSCLC)
inactive: GI50 (SK-MEL-28 melanoma) 7030 nM | GI50 (NCI-H226 lung) 7990 nM
25400 nM: TGI (BT-549 breast)
72.5 nM: TGI (SNB-75 CNS)
32.1 nM: TGI (NCI-H522 lung)
6540 nM: TGI (SK-MEL-5 melanoma)
128 nM: TGI (COLO 205 colon)
